The text below walks through data of ChEMBL document CHEMBL1212829, “Efficient synthesis of Hsp90 inhibitor dimers as potential antitumor agents” (Bioorg Med Chem, 2010).

What is called IC50 is the concentration at which inhibition is half-maximal.

The target of experiment [1] is Heat shock protein HSP 90-alpha (Homo sapiens, UniProt P07900). Nature of the experiment: Displacement of biotin-labeled geldanamycin from N-terminal His-tagged human recombinant HSP90alpha expressed in Escherichia coli.
The target in experiment [2] is Heat shock protein HSP90 (Homo sapiens, UniProt P07900+P08238). Nature of the experiment: Inhibition of Hsp90 in human SKBR3 cells assessed as Her2 degradation after 24 hrs by Western blotting. The class given is cell-based. The conditions noted are these: sk-br-3.
For experiment [3], the system named is SK-BR-3. Nature of the experiment: Cytotoxicity against human SKBR3 cells after 72 hrs by crystal violet assay. It counts as functional, cell-based. The note with it: SK-BR-3, 72 h.

For `Nc1ncnc2c1nc(Sc1cc3c(cc1Br)OCO3)n2CCCCc1cn(CCOCCOCCOCCOCCOCCn2cc(CCCCn3c(Sc4cc5c(cc4Br)OCO5)nc4c(N)ncnc43)nn2)nn1`, the IC50 is 5100 nM in experiment [1], 5200 nM in experiment [2] and 3000 nM in experiment [3].
The corresponding values for `Nc1ncnc2c1nc(Sc1cc3c(cc1Br)OCO3)n2CCCc1cn(CCOCCOCCOCCOCCOCCn2cc(CCCn3c(Sc4cc5c(cc4Br)OCO5)nc4c(N)ncnc43)nn2)nn1` are 650 nM, 6300 nM and 3800 nM.
On to `Nc1ncnc2c1nc(Sc1cc3c(cc1Br)OCO3)n2CCCCc1cn(CCCO)nn1`, for which the results for the IC50 in experiment [1], in experiment [2] and in experiment [3] were 510 nM, 2900 nM and 1400 nM, respectively.
Taken in the same sequence, the figures for `Nc1ncnc2c1nc(Sc1cc3c(cc1Br)OCO3)n2CCCc1cn(CCOCCOCCOCCOCCOCCOCCn2cc(CCCn3c(Sc4cc5c(cc4Br)OCO5)nc4c(N)ncnc43)nn2)nn1` were 790 nM, 7100 nM and 5600 nM.
Turning to `C#CCCCn1c(Sc2cc3c(cc2Br)OCO3)nc2c(N)ncnc21`, the IC50 in experiment [1] came to 300 nM; in experiment [2] it was 460 nM; in experiment [3] it was 330 nM.
As for `Nc1ncnc2c1nc(Sc1cc3c(cc1Br)OCO3)n2CCCCc1cn(CCOCCOCCOCCOCCOCCOCCn2cc(CCCCn3c(Sc4cc5c(cc4Br)OCO5)nc4c(N)ncnc43)nn2)nn1`, the IC50 worked out at 3400 nM in experiment [1], 4700 nM in experiment [2] and 5000 nM in experiment [3].
Taken in the same sequence, the figures for `C#CCCCCn1c(Sc2cc3c(cc2Br)OCO3)nc2c(N)ncnc21` were 1400 nM, 2600 nM and 1400 nM.
The corresponding values for `Nc1ncnc2c1nc(Sc1cc3c(cc1Br)OCO3)n2CCCc1cn(CCCO)nn1` are 490 nM, 3900 nM and 1800 nM.
Taken in the same sequence, the figures for `Nc1ncnc2c1nc(Sc1cc3c(cc1Br)OCO3)n2CCCc1cn(CCOCCOCCOCCOCCOCCOCCOCCn2cc(CCCn3c(Sc4cc5c(cc4Br)OCO5)nc4c(N)ncnc43)nn2)nn1` were 1100 nM, 9200 nM and 4800 nM.
`Nc1ncnc2c1nc(Sc1cc3c(cc1Br)OCO3)n2CCCCc1cn(CCOCCOCCOCCOCCOCCOCCOCCn2cc(CCCCn3c(Sc4cc5c(cc4Br)OCO5)nc4c(N)ncnc43)nn2)nn1`: the values for the half-inhibitory concentration (IC50) in experiment [1], in experiment [2] and in experiment [3] were 3100 nM, 4200 nM and 4800 nM, respectively.
